Data from patent US4100346A, “Certain 7(o-amino-methyl- or methylaminomethylphenyl- or cyclohexadienyl- or thienylacetamide)-3[1-carboxymethyl-(or ethyl- or propyl-)-tetrazol-5-ylthiomethyl]-3-cephem-4-carboxylic acids” (Bristol-Myers Company, priority 1976, dated 1978).
Converted amounts (≈) assume the structure as drawn. Read-outs that look alike come from different tables or passages of the source.

What was measured:
Escherichia coli [1] = experiment: Effect of inoculum size on susceptibility of Enterobacteriaceae
Pasteurella multocida = experiment: Growth inhibitory activity, antibiotic dilution technique; details: read-out: Minimum inhibitory concentration
Proteus mirabilis [2] = experiment: Effect of inoculum size on susceptibility of Enterobacteriaceae
Clostridium sp. = experiment: microbe, parasite or virus in culture; format: cell-based
Method: Antibiotic spectrum. […] Procedures were as follows:
c. Obligate anaerobes. The assay was performed on solid medium, consisting of Brain Heart Infusion Broth (BBL) supplemented with 5% defibrinated sheep blood and 1% Ionagar (Colab).

Citrobacter sp. = experiment: Growth inhibitory activity, antibiotic dilution technique
Proteus rettgeri [3] = experiment: as above; details: Providencia rettgeri, read-out: percent of strains inhibited
Proteus rettgeri [4] = experiment: Minimum growth inhibitory and bactericidal concentrations for Enterobacteriaceae; format: cell-based; details: Providencia rettgeri, inoculum 10^4 cells; for MBC: read-out: MBC, minimum bactericidal concentration; for MIC: read-out: MIC, Minimum growth inhibitory concentration
Excerpt: (§1) Miscellaneous. Methods for determining bactericidal activity and susceptibility to cell-free β-lactamase were those previously used; Leitner et al., BL-S640, A Cephalosporin With a Broad Spectrum of Antibacterial Activity: Properties in vitro, Antimicrob. Agents Chemother. 7:298-305 (1975).
(§2) *MIC, Minimum growth inhibitory concentration; MBC, minimum bactericidal
(§3) concentration; expressed as micrograms per milliliter. The inoculum was […]

Proteus mirabilis [5] = experiment: as above; format: cell-based; details: for MBC: read-out: MBC, minimum bactericidal concentration; for MIC: read-out: MIC, Minimum growth inhibitory concentration
Excerpt: as §1, §2, §3

Proteus vulgaris = experiment: as above; format: cell-based; details: inoculum 10^4 cells; for MIC: read-out: MIC, Minimum growth inhibitory concentration; for MBC: read-out: MBC, minimum bactericidal concentration
Excerpt: as §1, §2, §3

Enterobacter aerogenes = experiment: as above; format: cell-based; details: Klebsiella aerogenes, inoculum 10^4 cells; for MBC: read-out: MBC, minimum bactericidal concentration; for MIC: read-out: MIC, Minimum growth inhibitory concentration
Excerpt: as §1, §2, §3

Escherichia coli [6] = experiment: as above; format: cell-based; details: for MBC: read-out: MBC, minimum bactericidal concentration; for MIC: read-out: MIC, Minimum growth inhibitory concentration
Excerpt: as §1, §2, §3

Enterobacter cloacae = experiment: as above; format: cell-based; details: for MBC: read-out: MBC, minimum bactericidal concentration; for MIC: read-out: MIC, Minimum growth inhibitory concentration
Excerpt: as §1, §2, §3

Klebsiella pneumoniae = experiment: as above; format: cell-based; details: for MBC: read-out: MBC, minimum bactericidal concentration; for MIC: read-out: MIC, Minimum growth inhibitory concentration
Excerpt: as §1, §2, §3

Listeria monocytogenes = experiment: Growth inhibitory activity, antibiotic dilution technique; details: read-out: Minimum inhibitory concentration
[7] = biological target: staphylococcal β-lactamase, Staphylococcus aureus A9606 (Staphylococcus aureus, UniProt P00807); experiment: Hydrolysis by β-lactamase in cell-free extracts; format: biochemical; details: cell-free extract
staphylococcal β-lactamase, Staphylococcus aureus A9606, sequence (P00807 25-281): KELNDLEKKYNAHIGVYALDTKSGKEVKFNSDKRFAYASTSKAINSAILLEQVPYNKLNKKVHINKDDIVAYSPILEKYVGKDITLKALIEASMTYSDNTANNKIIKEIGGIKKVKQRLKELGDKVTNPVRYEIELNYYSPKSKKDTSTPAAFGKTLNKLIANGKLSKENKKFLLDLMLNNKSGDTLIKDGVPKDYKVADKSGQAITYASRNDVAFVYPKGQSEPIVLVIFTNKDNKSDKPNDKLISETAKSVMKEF
Method: as §1
Susceptibility to β-lactamase. Susceptibility to enzymic hydrolysis was assessed by determining relative rates of hydrolysis by cell-free preparations of various β-lactamases (Table 6). BL-S786 was slightly to markedly less susceptible than the other cephalosporins to hydrolysis by β-lactamases of Type Ia, Ib, IIIa and IVa. All cephalosporins were poor substrates for Type IIa and staphylococcal β-lactamases. The four cephalosporins were hydrolyzed at similar rates by the Type IVb enzyme.

[8] = read-out: Minimum inhibitory concentration
[9] = Proteus mirabilis strain 1, inoculum 10^4 cells
[10] = Proteus mirabilis strain 2, inoculum 10^4 cells
[11] = Proteus mirabilis strain 3, inoculum 10^4 cells
[12] = Proteus mirabilis strain 4, inoculum 10^4 cells
[13] = Proteus mirabilis strain 5, inoculum 10^4 cells
[14] = Proteus vulgaris, Proteus vulgaris strain 2
[15] = Proteus vulgaris, Proteus vulgaris strain 4
[16] = Enterobacter aerogenes strain 1
[17] = Enterobacter aerogenes strain 2
[18] = Enterobacter aerogenes strain 3
[19] = Escherichia coli strain 1, inoculum 10^4 cells
[20] = Escherichia coli strain 2, inoculum 10^4 cells
[21] = Escherichia coli strain 3, inoculum 10^4 cells
[22] = Escherichia coli strain 4, inoculum 10^4 cells
[23] = Escherichia coli strain 5, inoculum 10^4 cells
[24] = Escherichia coli strain 6, inoculum 10^4 cells
[25] = Enterobacter cloacae strain 3, inoculum 10^4 cells
[26] = Enterobacter cloacae strain 4, inoculum 10^4 cells
[27] = Enterobacter cloacae strain 8, inoculum 10^4 cells
[28] = Klebsiella pneumoniae strain 1, inoculum 10^4 cells
[29] = Klebsiella pneumoniae strain 2, inoculum 10^4 cells
[30] = Klebsiella pneumoniae strain 3, inoculum 10^4 cells
[31] = Klebsiella pneumoniae strain 4, inoculum 10^4 cells
[32] = Klebsiella pneumoniae strain 5, inoculum 10^4 cells
[33] = Klebsiella pneumoniae strain 6, inoculum 10^4 cells

NCc1ccccc1CC(=O)N[C@@H]1C(=O)N2C(C(=O)O)=C(CSc3nnnn3CC(=O)O)CS[C@H]12 [Example 1]
MIC (Escherichia coli [1]; read-out: Minimum Inhibitory Concentration, Escherichia coli strain 1, A, Inoculum of 10^2 organisms): 0.5 µg/mL (≈ 0.962 µM) | MIC (Escherichia coli [1]; read-out: Minimum Inhibitory Concentration, Escherichia coli strain 1, B, Inoculum of 10^6 organisms): 2 µg/mL (≈ 3.85 µM) | MIC (Escherichia coli [1]; read-out: Minimum Inhibitory Concentration, Escherichia coli strain 2, A, Inoculum of 10^2 organisms): 4 µg/mL (≈ 7.7 µM) | MIC (Escherichia coli [1]; read-out: Minimum Inhibitory Concentration, Escherichia coli strain 2, B, Inoculum of 10^6 organisms): 32 µg/mL (≈ 61.6 µM) | MIC (Escherichia coli [1]; read-out: Minimum Inhibitory Concentration, Escherichia coli strain 3, A, Inoculum of 10^2 organisms): 0.25 µg/mL (≈ 0.481 µM) | MIC (Escherichia coli [1]; read-out: Minimum Inhibitory Concentration, Escherichia coli strain 3, B, Inoculum of 10^6 organisms): 1 µg/mL (≈ 1.92 µM) | MIC (Escherichia coli [1]; read-out: Minimum Inhibitory Concentration, Escherichia coli strain 4, A, Inoculum of 10^2 organisms): 0.5 µg/mL (≈ 0.962 µM) | MIC (Escherichia coli [1]; read-out: Minimum Inhibitory Concentration, Escherichia coli strain 4, B, Inoculum of 10^6 organisms): 2 µg/mL (≈ 3.85 µM) | MIC (Escherichia coli [1]; read-out: Minimum Inhibitory Concentration, Escherichia coli strain 5, A, Inoculum of 10^2 organisms): 1 µg/mL (≈ 1.92 µM) | MIC (Escherichia coli [1]; read-out: Minimum Inhibitory Concentration, Escherichia coli strain 5, B, Inoculum of 10^6 organisms): 2 µg/mL (≈ 3.85 µM) | MIC (Escherichia coli [1]; read-out: Minimum Inhibitory Concentration, Escherichia coli strain 6, A, Inoculum of 10^2 organisms): 0.5 µg/mL (≈ 0.962 µM) | MIC (Escherichia coli [1]; read-out: Minimum Inhibitory Concentration, Escherichia coli strain 6, B, Inoculum of 10^6 organisms): 2 µg/mL (≈ 3.85 µM) | MIC (Escherichia coli [1]; read-out: Minimum Inhibitory Concentration, Escherichia coli strain 7, A, Inoculum of 10^2 organisms): 0.25 µg/mL (≈ 0.481 µM) | MIC (Escherichia coli [1]; read-out: Minimum Inhibitory Concentration, Escherichia coli strain 7, B, Inoculum of 10^6 organisms): 2 µg/mL (≈ 3.85 µM) | MIC (Pasteurella multocida): 0.25 µg/mL (≈ 0.481 µM) | MIC (Proteus mirabilis [2]; read-out: Minimum Inhibitory Concentration, Proteus mirabilis strain 1, A, Inoculum of 10^2 organisms): 0.5 µg/mL (≈ 0.962 µM) | MIC (Proteus mirabilis [2]; read-out: Minimum Inhibitory Concentration, Proteus mirabilis strain 1, B, Inoculum of 10^6 organisms): 2 µg/mL (≈ 3.85 µM) | MIC (Proteus mirabilis [2]; read-out: Minimum Inhibitory Concentration, Proteus mirabilis strain 2, A, Inoculum of 10^2 organisms): 0.5 µg/mL (≈ 0.962 µM) | MIC (Proteus mirabilis [2]; read-out: Minimum Inhibitory Concentration, Proteus mirabilis strain 2, B, Inoculum of 10^6 organisms): 4 µg/mL (≈ 7.7 µM) | MIC (Proteus mirabilis [2]; read-out: Minimum Inhibitory Concentration, Proteus mirabilis strain 3, A, Inoculum of 10^2 organisms): 0.5 µg/mL (≈ 0.962 µM) | MIC (Proteus mirabilis [2]; read-out: Minimum Inhibitory Concentration, Proteus mirabilis strain 3, B, Inoculum of 10^6 organisms): 2 µg/mL (≈ 3.85 µM) | MIC (Proteus mirabilis [2]; read-out: Minimum Inhibitory Concentration, Proteus mirabilis strain 4, A, Inoculum of 10^2 organisms): 0.5 µg/mL (≈ 0.962 µM) | MIC (Proteus mirabilis [2]; read-out: Minimum Inhibitory Concentration, Proteus mirabilis strain 4, B, Inoculum of 10^6 organisms): 2 µg/mL (≈ 3.85 µM) | MIC (Proteus mirabilis [2]; read-out: Minimum Inhibitory Concentration, Proteus mirabilis strain 5, A, Inoculum of 10^2 organisms): 0.5 µg/mL (≈ 0.962 µM) | MIC (Proteus mirabilis [2]; read-out: Minimum Inhibitory Concentration, Proteus mirabilis strain 5, B, Inoculum of 10^6 organisms): 4 µg/mL (≈ 7.7 µM) | MIC (Clostridium sp.; 48 h, read-out: concentration inhibiting all strains): 2 µg/mL (≈ 3.85 µM) | MIC (Clostridium sp.; [8]): 2 µg/mL (≈ 3.85 µM) | MIC (Citrobacter sp.; [8]): 1 µg/mL (≈ 1.92 µM) | MIC (Citrobacter sp.; read-out: Minimum inhibitory concentration, Citrobacter sp., 1 strain): 125 µg/mL (≈ 241 µM) | inhibition at 16 µg/mL (Proteus rettgeri [3]): 78% | MBC (Proteus rettgeri [4]; Proteus rettgeri strain 2): 0.13 µg/mL (≈ 0.25 µM) | MIC (Proteus rettgeri [4]; Proteus rettgeri strain 2): 0.063 µg/mL (≈ 0.121 µM) | MBC (Proteus rettgeri [4]; Proteus rettgeri strain 3): 63 µg/mL (≈ 121 µM) | MIC (Proteus rettgeri [4]; Proteus rettgeri strain 3): 0.25 µg/mL (≈ 0.481 µM) | MBC (Proteus mirabilis [5]; [9]): 1 µg/mL (≈ 1.92 µM) | MIC (Proteus mirabilis [5]; [9]): 0.5 µg/mL (≈ 0.962 µM) | MBC (Proteus mirabilis [5]; [10]): 0.5 µg/mL (≈ 0.962 µM) | MIC (Proteus mirabilis [5]; [10]): 0.5 µg/mL (≈ 0.962 µM) | MBC (Proteus mirabilis [5]; [11]): 0.5 µg/mL (≈ 0.962 µM) | MIC (Proteus mirabilis [5]; [11]): 0.5 µg/mL (≈ 0.962 µM) | MBC (Proteus mirabilis [5]; [12]): 0.5 µg/mL (≈ 0.962 µM) | MIC (Proteus mirabilis [5]; [12]): 0.25 µg/mL (≈ 0.481 µM) | MBC (Proteus mirabilis [5]; [13]): 0.5 µg/mL (≈ 0.962 µM) | MIC (Proteus mirabilis [5]; [13]): 0.5 µg/mL (≈ 0.962 µM) | MIC (Proteus vulgaris; Proteus vulgaris strain 1): 0.5 µg/mL (≈ 0.962 µM) | MBC (Proteus vulgaris; Proteus vulgaris, Proteus vulgaris strain 1): 1 µg/mL (≈ 1.92 µM) | MBC (Proteus vulgaris; [14]): 0.5 µg/mL (≈ 0.962 µM) | MIC (Proteus vulgaris; [14]): 0.5 µg/mL (≈ 0.962 µM) | MBC (Proteus vulgaris; [15]): 1 µg/mL (≈ 1.92 µM) | MIC (Proteus vulgaris; [15]): 0.5 µg/mL (≈ 0.962 µM) | MBC (Enterobacter aerogenes; [16]): 2 µg/mL (≈ 3.85 µM) | MIC (Enterobacter aerogenes; [16]): 2 µg/mL (≈ 3.85 µM) | MBC (Enterobacter aerogenes; [17]): 2 µg/mL (≈ 3.85 µM) | MIC (Enterobacter aerogenes; [17]): 2 µg/mL (≈ 3.85 µM) | MBC (Enterobacter aerogenes; [18]): 16 µg/mL (≈ 30.8 µM) | MIC (Enterobacter aerogenes; [18]): 8 µg/mL (≈ 15.4 µM) | MBC (Escherichia coli [6]; [19]): 0.5 µg/mL (≈ 0.962 µM) | MIC (Escherichia coli [6]; [19]): 0.5 µg/mL (≈ 0.962 µM) | MBC (Escherichia coli [6]; [20]): 16 µg/mL (≈ 30.8 µM) | MIC (Escherichia coli [6]; [20]): 16 µg/mL (≈ 30.8 µM) | MBC (Escherichia coli [6]; [21]): 0.5 µg/mL (≈ 0.962 µM) | MIC (Escherichia coli [6]; [21]): 0.25 µg/mL (≈ 0.481 µM) | MBC (Escherichia coli [6]; [22]): 0.5 µg/mL (≈ 0.962 µM) | MIC (Escherichia coli [6]; [22]): 0.5 µg/mL (≈ 0.962 µM) | MBC (Escherichia coli [6]; [23]): 1 µg/mL (≈ 1.92 µM) | MIC (Escherichia coli [6]; [23]): 1 µg/mL (≈ 1.92 µM) | MBC (Escherichia coli [6]; [24]): 1 µg/mL (≈ 1.92 µM) | MIC (Escherichia coli [6]; [24]): 1 µg/mL (≈ 1.92 µM) | MBC (Enterobacter cloacae; [25]): 8 µg/mL (≈ 15.4 µM) | MIC (Enterobacter cloacae; [25]): 4 µg/mL (≈ 7.7 µM) | MBC (Enterobacter cloacae; [26]): 63 µg/mL (≈ 121 µM) | MIC (Enterobacter cloacae; [26]): 8 µg/mL (≈ 15.4 µM) | MBC (Enterobacter cloacae; [27]): 63 µg/mL (≈ 121 µM) | MIC (Enterobacter cloacae; [27]): 63 µg/mL (≈ 121 µM) | MBC (Klebsiella pneumoniae; [28]): 0.25 µg/mL (≈ 0.481 µM) | MIC (Klebsiella pneumoniae; [28]): 0.25 µg/mL (≈ 0.481 µM) | MBC (Klebsiella pneumoniae; [29]): 0.25 µg/mL (≈ 0.481 µM) | MIC (Klebsiella pneumoniae; [29]): 0.25 µg/mL (≈ 0.481 µM) | MBC (Klebsiella pneumoniae; [30]): 0.25 µg/mL (≈ 0.481 µM) | MIC (Klebsiella pneumoniae; [30]): 0.25 µg/mL (≈ 0.481 µM) | MBC (Klebsiella pneumoniae; [31]): 0.5 µg/mL (≈ 0.962 µM) | MIC (Klebsiella pneumoniae; [31]): 0.5 µg/mL (≈ 0.962 µM) | MBC (Klebsiella pneumoniae; [32]): 0.5 µg/mL (≈ 0.962 µM) | MIC (Klebsiella pneumoniae; [32]): 0.5 µg/mL (≈ 0.962 µM) | MBC (Klebsiella pneumoniae; [33]): 1 µg/mL (≈ 1.92 µM) | MIC (Klebsiella pneumoniae; [33]): 0.5 µg/mL (≈ 0.962 µM) | MIC (Listeria monocytogenes): 10.8 µg/mL (≈ 20.8 µM) | Relative Rate of Hydrolysis (benzylpenicillin = 100) [7]: < 0.5
